The record followed here is US20230322846A9, “NEUROACTIVE STEROIDS AND THEIR METHODS OF USE” (SAGE THERAPEUTICS, INC., priority 2018, published 2023).

Some results are limits rather than exact numbers.

For experiment [1], the target named is [35S]-TBPS binding, rat brain cortical membranes. Kind of experiment: Steroid inhibition of [35S]-TBPS binding. As to conditions: 3 nM [35S]-TBPS, in the presence of 5 mM GABA. An outline of the steps: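 In the presence of […], compounds (DMSO 0.5% final) competed with 3 nM [35S]-TBPS for Sprague-Dawley rat cortical membranes, pH 7.4 phosphate buffer, 90 min, room temperature. Filtration and scintillation counting; specific binding defined by […]; IC50 and maximal inhibition fitted per experiment, averaged as mean ± SEM.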

For experiment [2], the target named is human GABAA receptors composed of the α1β2γ2 subunits (Homo sapiens (Human), UniProt P14867+P18507+P47870). In words: α1β2γ2 SyncroPatch automated patch clamp assay. It counts as cell-based. The conditions noted are these: for EC50: HEK cells, potentiation of submaximal GABA current, clamped at −120 mV; for α1β2γ2 EMAX: peak current after GABA+compound divided by peak current after GABA alone. The method, then: (§1) The SyncroPatch 384PE (Nanion, Germany) automated patch clamp platform was used to obtain recordings from human embryonic kidney cells stably expressing human GABAA receptors composed of the α1β2γ2 and α4β3δ subunits. Cells were bathed in an extracellular solution containing: 140 mM NaCl, 4 mM KCl, 2 mM CaCl2), 1 mM MgCl2, 10 mM HEPES, 5 mM glucose and 0.1% DMSO. Solution was maintained at pH 7.4 with NaOH and 300 mOsm/L. Chips with multi-hole (4×) medium resistance (2-3M) are used for the recombinant cell line experiments. Once harvested, cells are stored in extracellular solution set to 10° C. in the cell hotel with a minimum shaking speed of 200 rpm before addition to the chip at the beginning of each experiment. Whole cell patch clamp recordings were made using an intracellular solution containing: 90 mM KCl, 50 mM KF, 1.5 mM MgCl2, 11.1 mM EGTA and 10 mM HEPES, 2 mM NaATP, maintained at pH 7.2 with KOH. Currents are leak corrected (using P/2 leak correction protocol) and sampled at 5 kHz. Cells were clamped at −120 mV. After establishing a stable baseline, a submaximal concentration of GABA (3-5 μM for cells expressing α1β2γ2 and 10 μM for cells expressing […]) was applied at a rate of 10 μl/second, immediately followed by application of GABA+compound (10 μl/second) at a single concentration of compound per cell. Compounds were tested at six concentrations (0.029, 0.12, 0.47, 1.88, 7.5, and 30 μM) in n=8-12 cells per concentration. Compound effect was determined by dividing peak current amplitude after GABA+compound by peak current amplitude after GABA alone. EC50 and Emax values were determined from average values for each concentration.
On the technique in general: Patch clamp records ionic current or voltage across a cell membrane.

Experiment [3] deals with human GABAA receptors composed of the α4β3δ subunits (Homo sapiens (Human), UniProt O14764+P28472+P48169). In words: α4β3δ SyncroPatch automated patch clamp assay. Type of experiment: cell-based. The conditions noted are these: for EC50: HEK cells, potentiation of submaximal GABA current, clamped at −120 mV; for α4β3δ EMAX: peak current after GABA+compound divided by peak current after GABA alone. The method, then: as §1
Sequence of human GABAA receptors composed of the α4β3δ subunits (P48169 36-554 limits assumed): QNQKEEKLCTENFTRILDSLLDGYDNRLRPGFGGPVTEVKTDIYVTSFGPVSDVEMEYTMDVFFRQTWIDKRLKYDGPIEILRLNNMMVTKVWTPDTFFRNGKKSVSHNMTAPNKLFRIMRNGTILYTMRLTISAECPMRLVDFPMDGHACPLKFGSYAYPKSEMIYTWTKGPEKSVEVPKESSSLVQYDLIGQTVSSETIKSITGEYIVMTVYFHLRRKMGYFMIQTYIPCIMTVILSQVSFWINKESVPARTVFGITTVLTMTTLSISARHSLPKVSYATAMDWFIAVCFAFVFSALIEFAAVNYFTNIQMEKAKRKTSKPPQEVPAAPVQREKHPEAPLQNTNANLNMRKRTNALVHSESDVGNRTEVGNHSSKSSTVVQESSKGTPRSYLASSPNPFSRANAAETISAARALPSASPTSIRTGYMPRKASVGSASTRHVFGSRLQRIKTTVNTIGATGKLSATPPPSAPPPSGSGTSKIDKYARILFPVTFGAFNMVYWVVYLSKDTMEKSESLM
Sequence of human GABAA receptors composed of the α4β3δ subunits (P28472 26-473 limits assumed): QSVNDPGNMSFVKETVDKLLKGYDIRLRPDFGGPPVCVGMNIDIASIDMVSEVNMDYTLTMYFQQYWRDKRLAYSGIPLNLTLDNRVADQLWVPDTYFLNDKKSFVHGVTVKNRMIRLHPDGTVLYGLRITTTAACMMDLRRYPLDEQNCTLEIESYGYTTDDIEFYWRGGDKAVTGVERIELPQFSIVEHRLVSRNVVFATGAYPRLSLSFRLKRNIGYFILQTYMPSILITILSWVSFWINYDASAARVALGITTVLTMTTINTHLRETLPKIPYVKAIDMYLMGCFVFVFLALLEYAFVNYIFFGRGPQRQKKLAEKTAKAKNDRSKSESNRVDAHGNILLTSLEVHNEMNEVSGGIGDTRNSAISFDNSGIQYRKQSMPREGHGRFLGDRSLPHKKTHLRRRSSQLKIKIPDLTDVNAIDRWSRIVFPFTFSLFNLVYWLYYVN
Sequence of human GABAA receptors composed of the α4β3δ subunits (O14764 17-452 limits assumed): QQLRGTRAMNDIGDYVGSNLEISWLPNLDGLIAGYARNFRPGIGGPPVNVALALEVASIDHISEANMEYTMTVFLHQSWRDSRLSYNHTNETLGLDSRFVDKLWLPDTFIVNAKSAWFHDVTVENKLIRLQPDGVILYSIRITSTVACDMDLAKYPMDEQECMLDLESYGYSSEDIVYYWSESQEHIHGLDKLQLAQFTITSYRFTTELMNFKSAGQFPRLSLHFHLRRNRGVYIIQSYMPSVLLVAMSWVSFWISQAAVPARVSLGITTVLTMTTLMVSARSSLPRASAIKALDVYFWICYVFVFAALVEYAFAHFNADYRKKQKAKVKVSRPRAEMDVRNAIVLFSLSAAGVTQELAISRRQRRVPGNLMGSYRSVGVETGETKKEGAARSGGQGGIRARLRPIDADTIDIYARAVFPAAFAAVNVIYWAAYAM

Sequence of human GABAA receptors composed of the α1β2γ2 subunits (P14867 28-456 limits assumed): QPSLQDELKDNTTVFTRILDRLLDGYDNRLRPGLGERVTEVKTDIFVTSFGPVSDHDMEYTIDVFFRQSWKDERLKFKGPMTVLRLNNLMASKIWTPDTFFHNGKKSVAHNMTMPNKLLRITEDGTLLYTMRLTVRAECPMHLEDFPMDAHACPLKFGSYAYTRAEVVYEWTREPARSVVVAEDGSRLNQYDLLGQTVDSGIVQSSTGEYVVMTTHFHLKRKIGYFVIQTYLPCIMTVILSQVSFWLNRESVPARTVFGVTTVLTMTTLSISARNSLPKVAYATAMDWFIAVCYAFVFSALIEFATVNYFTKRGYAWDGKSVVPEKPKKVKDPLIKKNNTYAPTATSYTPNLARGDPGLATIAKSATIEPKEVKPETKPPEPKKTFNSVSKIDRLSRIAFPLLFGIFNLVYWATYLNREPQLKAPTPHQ
Sequence of human GABAA receptors composed of the α1β2γ2 subunits (P47870 25-512 limits assumed): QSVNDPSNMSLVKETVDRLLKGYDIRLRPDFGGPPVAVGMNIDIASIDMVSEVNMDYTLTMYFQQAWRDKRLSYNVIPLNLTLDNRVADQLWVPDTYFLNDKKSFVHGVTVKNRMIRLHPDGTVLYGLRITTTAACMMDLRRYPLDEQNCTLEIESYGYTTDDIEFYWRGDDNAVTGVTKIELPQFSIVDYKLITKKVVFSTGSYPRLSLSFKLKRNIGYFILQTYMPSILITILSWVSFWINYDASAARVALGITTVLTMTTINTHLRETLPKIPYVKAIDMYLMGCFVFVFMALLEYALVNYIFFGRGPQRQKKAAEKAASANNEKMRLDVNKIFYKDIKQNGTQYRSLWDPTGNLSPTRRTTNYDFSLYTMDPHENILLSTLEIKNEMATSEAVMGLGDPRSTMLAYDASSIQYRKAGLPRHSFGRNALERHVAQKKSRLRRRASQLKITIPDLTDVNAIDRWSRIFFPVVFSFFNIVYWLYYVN
Sequence of human GABAA receptors composed of the α1β2γ2 subunits (P18507 40-475 limits assumed): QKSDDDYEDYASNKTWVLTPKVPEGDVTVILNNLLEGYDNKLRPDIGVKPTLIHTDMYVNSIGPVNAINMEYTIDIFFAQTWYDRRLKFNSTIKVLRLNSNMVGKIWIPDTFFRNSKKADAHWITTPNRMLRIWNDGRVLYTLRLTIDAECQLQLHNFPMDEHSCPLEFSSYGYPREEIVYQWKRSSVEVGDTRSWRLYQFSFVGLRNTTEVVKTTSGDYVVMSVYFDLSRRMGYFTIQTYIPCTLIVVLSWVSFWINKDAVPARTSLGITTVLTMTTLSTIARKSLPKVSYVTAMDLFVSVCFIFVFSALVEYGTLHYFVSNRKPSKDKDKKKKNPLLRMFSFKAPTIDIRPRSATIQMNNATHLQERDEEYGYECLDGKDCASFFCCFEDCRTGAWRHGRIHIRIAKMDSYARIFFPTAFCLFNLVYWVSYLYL

The term IC50 denotes the concentration needed to halve the response being measured. In general, EC50 refers to the midpoint of the concentration-response curve. On to `CCC[C@@]1(O)CC[C@H]2[C@H](CC[C@@H]3[C@@H]2CC[C@]2(C)[C@@H]([C@@H](C)Cc4ccc(C#N)nc4)CC[C@@H]32)C1` [Example 401, 5-((S)-2-((3R,5R,8R,9R,10S,13R,14S,17R)-3-hydroxy-13-methyl-3-propylhexadecahydro-1H-cyclopenta[a]phenanthren-17-yl)propyl)picolinonitrile], for which, in experiment [1], the IC50 is below 100 nM. In addition, in experiment [2], the EC50 was at least 1000 nM and the “α1β2γ2 EMAX” value was “C (C indicates an Emax response ≥10)”. Besides, in experiment [3], the EC50 was at least 1000 nM and the “α4β3δ EMAX” value is on record as “A (A indicates an Emax response <30)”.

For the compound `CC[C@@]1(O)CC[C@H]2[C@H](CC[C@@H]3[C@@H]2CC[C@]2(C)[C@@H]([C@H](C)Cn4cc(C#N)cn4)CC[C@@H]32)C1` [Example 276, 1-((S)-2-((3R,5R,8R,9R,10S,13S,14S,17R)-3-ethyl-3-hydroxy-13-methylhexadecahydro-1H-cyclopenta[a]phenanthren-17-yl)propyl)-1H-pyrazole-4-carbonitrile], in experiment [1], the IC50 is below 100 nM. Also, in experiment [2], the EC50 lay in the range of 200 to 1000 nM and the “α1β2γ2 EMAX” value is given as “B (B indicates an Emax response 8 to <10)”. For the same compound, in experiment [3], the EC50 is below 200 nM and the “α4β3δ EMAX” value is listed as “A (A indicates an Emax response <30)”.

As for `CCC[C@@]1(O)CC[C@@]2(COC)[C@H](CC[C@H]3[C@@H]4CC[C@H]([C@H](C)Cn5nnc(C)n5)[C@@]4(C)CC[C@@H]32)C1` [Example 320, (3R,5R,8S,9S,10R,13S,14S,17R)-10-(methoxymethyl)-13-methyl-17-((S)-1-(5-methyl-2H-tetrazol-2-yl)propan-2-yl)-3-propylhexadecahydro-1H-cyclopenta[a]phenanthren-3-ol], the IC50 in experiment [1] was below 100 nM. For the same compound, in experiment [2], the EC50 lay within 200 to 1000 nM and the “α1β2γ2 EMAX” value was “B (B indicates an Emax response 8 to <10)”. In experiment [3], the EC50 was in the range of 200 to 1000 nM and the “α4β3δ EMAX” value is on record as “C (C indicates an Emax response ≥45)”.

Consider `COC[C@@]1(O)CC[C@H]2[C@@H](CC[C@@H]3[C@@H]2CC[C@]2(C)[C@@H]([C@@H](C)Cn4nnc(C)n4)CC[C@@H]32)C1` [Example 53, (3R,5S,8R,9R,10S,13S,14S,17R)-3-(methoxymethyl)-13-methyl-17-((R)-1-(5-methyl-2H-tetrazol-2-yl)propan-2-yl)hexadecahydro-1H-cyclopenta[a]phenanthren-3-ol], for which, in experiment [1], the IC50 is 100 to 1000 nM. In addition, in experiment [2], the EC50 is at least 1000 nM and the “α1β2γ2 EMAX” value was “A (A indicates an Emax response <8)”. Also, in experiment [3], the EC50 was at least 1000 nM and the “α4β3δ EMAX” value is “A (A indicates an Emax response <30)”.

Take `C[C@@H](Cn1cc(C#N)cn1)[C@H]1CC[C@H]2[C@@H]3CC[C@@H]4C[C@@](O)(CC5CC5)CC[C@@H]4[C@H]3CC[C@]12C` [Example 303, 1-((R)-2-((3S,5R,8R,9R,10S,13S,14S,17R)-3-(cyclopropylmethyl)-3-hydroxy-13-methylhexadecahydro-1H-cyclopenta[a]phenanthren-17-yl)propyl)-1H-pyrazole-4-carbonitrile]: the IC50 in experiment [1] is below 100 nM. Moreover, in experiment [2], the EC50 was below 200 nM and the “α1β2γ2 EMAX” value is listed as “C (C indicates an Emax response ≥10)”. For the same compound, in experiment [3], the EC50 is below 200 nM and the “α4β3δ EMAX” value is recorded as “B (B indicates an Emax response 30 to <45)”.

As for `CCOC[C@@]1(O)CC[C@H]2[C@H](CC[C@@H]3[C@@H]2CC[C@]2(C)[C@@H]([C@H](C)Cn4cc(C#N)cn4)CC[C@@H]32)C1` [Example 270, 1-((S)-2-((3R,5R,8R,9R,10S,13S,14S,17R)-3-(ethoxymethyl)-3-hydroxy-13-methylhexadecahydro-1H-cyclopenta[a]phenanthren-17-yl)propyl)-1H-pyrazole-4-carbonitrile], the IC50 in experiment [1] is below 100 nM. In addition, in experiment [2], the EC50 fell in the range of 200 to 1000 nM and the “α1β2γ2 EMAX” value is listed as “C (C indicates an Emax response ≥10)”. Also, in experiment [3], the EC50 lay within 200 to 1000 nM and the “α4β3δ EMAX” value is recorded as “C (C indicates an Emax response ≥45)”.

On to `CCC[C@@]1(O)CC[C@@]2(C)[C@H](CC[C@H]3[C@@H]4CC[C@H](C(C)Cn5cc(C#N)cn5)[C@@]4(C)CC(=O)[C@@H]32)C1` (stereo in doubt) [Example 339, 1-((S)-2-((3R,5R,8S,9S,10S,13S,14S,17R)-3-hydroxy-10,13-dimethyl-11-oxo-3-propylhexadecahydro-1H-cyclopenta[a]phenanthren-17-yl)propyl)-1H-pyrazole-4-carbonitrile], for which the IC50 in experiment [1] was below 100 nM. Besides, in experiment [2], the EC50 was at least 1000 nM and the “α1β2γ2 EMAX” value was “C (C indicates an Emax response ≥10)”. For the same compound, in experiment [3], the EC50 is below 200 nM and the “α4β3δ EMAX” value is recorded as “C (C indicates an Emax response ≥45)”.

On to `CCC[C@@]1(O)CC[C@H]2[C@H](CC[C@@H]3[C@@H]2CC[C@]2(C)[C@@H]([C@H](C)Cn4nnc(C)n4)CC[C@@H]32)C1` [Example 293, (3R,5R,8R,9R,10S,13S,14S,17R)-13-methyl-17-((S)-1-(5-methyl-2H-tetrazol-2-yl)propan-2-yl)-3-propylhexadecahydro-1H-cyclopenta[a]phenanthren-3-ol], for which, in experiment [1], the IC50 was below 100 nM. In addition, in experiment [2], the EC50 is at least 1000 nM and the “α1β2γ2 EMAX” value is listed as “A (A indicates an Emax response <8)”. Further, in experiment [3], the EC50 lay in the range of 200 to 1000 nM and the “α4β3δ EMAX” value is “A (A indicates an Emax response <30)”.

Consider `COC[C@@]1(O)CC[C@H]2[C@H](CC[C@@H]3[C@@H]2CC[C@]2(C)[C@@H]([C@@H](C)Nc4ccc(C#N)cn4)CC[C@@H]32)C1` [Example 41, 6-(((R)-1-((3R,5R,8R,9R,10S,13S,14S,17S)-3-hydroxy-3-(methoxymethyl)-13-methylhexadecahydro-1H-cyclopenta[a]phenanthren-17-yl)ethyl)amino)nicotinonitrile], for which the IC50 in experiment [1] fell in the range of 100 to 1000 nM. In experiment [2], the EC50 is at least 1000 nM and the “α1β2γ2 EMAX” value is reported as “A (A indicates an Emax response <8)”. Besides, in experiment [3], the EC50 was at least 1000 nM and the “α4β3δ EMAX” value is on record as “B (B indicates an Emax response 30 to <45)”.

In the case of `C[C@@H](Cc1cncc(C#N)c1)[C@H]1CC[C@H]2[C@@H]3CC[C@@H]4C[C@](C)(O)CC[C@@H]4[C@H]3CC[C@]12C` [Example 407, 5-((S)-2-((3R,5R,8R,9R,10S,13R,14S,17R)-3-hydroxy-3,13-dimethylhexadecahydro-1H-cyclopenta[a]phenanthren-17-yl)propyl)nicotinonitrile], the IC50 in experiment [1] was below 100 nM. Further, in experiment [2], the EC50 was below 200 nM and the “α1β2γ2 EMAX” value is given as “C (C indicates an Emax response ≥10)”. In addition, in experiment [3], the EC50 is at least 1000 nM and the “α4β3δ EMAX” value is given as “C (C indicates an Emax response ≥45)”.

On to `CCOC[C@@]1(O)CC[C@H]2[C@H](CC[C@@H]3[C@@H]2CC[C@]2(C)[C@@H]([C@H](Cn4cc(C#N)cn4)C(F)(F)F)CC[C@@H]32)C1` [Example 357, 1-((R)-2-((3R,5R,8R,9R,10S,13S,14S,17R)-3-(ethoxymethyl)-3-hydroxy-13-methylhexadecahydro-1H-cyclopenta[a]phenanthren-17-yl)-3,3,3-trifluoropropyl)-1H-pyrazole-4-carbonitrile], for which the IC50 in experiment [1] was in the range of 100 to 1000 nM. Further, in experiment [2], the EC50 is 200 to 1000 nM and the “α1β2γ2 EMAX” value is given as “B (B indicates an Emax response 8 to <10)”. In addition, in experiment [3], the EC50 lay within 200 to 1000 nM and the “α4β3δ EMAX” value is on record as “B (B indicates an Emax response 30 to <45)”.

With `CC(C)C[C@@]1(O)CC[C@H]2[C@H](CC[C@@H]3[C@@H]2CC[C@]2(C)[C@@H]([C@@H](C)Cn4cc(C#N)cn4)CC[C@@H]32)C1` [Example 299, 1-((R)-2-((3S,5R,8R,9R,10S,13S,14S,17R)-3-hydroxy-3-isobutyl-13-methylhexadecahydro-1H-cyclopenta[a]phenanthren-17-yl)propyl)-1H-pyrazole-4-carbonitrile], the IC50 in experiment [1] is below 100 nM. Further, the EC50 in experiment [2] was at least 1000 nM. In experiment [3], the EC50 was below 200 nM and the “α4β3δ EMAX” value was “B (B indicates an Emax response 30 to <45)”.
